Structures can show the parent of a compound that is named as a salt.

As usually defined, the melting point is the temperature of the solid-liquid transition.

In turn, `CCN(CC)CCOc1ccc(Nc2ncc3c(n2)N(CC)C(=O)N(c2cc(OC)cc(OC)c2)C3)cc1` (as salt: salt) (hydrate or solvate) [Example 53a, 7-[4-(2-Diethylamino-ethoxy)-phenylamino]-3-(3,5-dimethoxy-phenyl)-1-ethyl-3,4-dihydro-pyrimido[4,5-d]pyrimidin-2(1H)-one] registered a melting point of 139 to 141 °C. `CCN1C(=O)N(c2cc(OC)cc(OC)c2)Cc2cnc(SC)nc21` (hydrate or solvate) [Example 50a, 3-(3,5-Dimethoxy-phenyl)-1-ethyl-7-methylsulfanyl-3,4-dihydro-pyrimido[4,5-d]pyrimidin-2(1H)-one] displayed a melting point of 134 to 136 °C. Take `CCN(CC)CCCCNc1ncc2c(n1)N(CC)C(=O)N(c1cc(OC)cc(OC)c1)C2` (hydrate or solvate) [Example 53, 7-(4-Diethylamino-butylamino)-3-(3,5-dimethoxy-phenyl)-1-ethyl-3,4-dihydro-pyrimido[4,5-d]pyrimidin-2(1H)-one]: the melting point was 83 to 85 °C. To `C[S+]([O-])c1ncc2c(n1)N(C1CCCC1)C(=O)NC2` (stereo not drawn) [Example 5, 1-Cyclopentyl-7-methanesulfinyl-3,4-dihydro-pyrimido[4,5-d]pyrimidin-2(1H)-one] belongs 235 to 236 °C (dec.); to `CC(C)N1C(=O)NCc2cnc([S+](C)[O-])nc21` (stereo not drawn) [Example 6, 1-Isopropyl-7-methanesulfinyl-3,4-dihydro-pyrimido[4,5-d]pyrimidin-2(1H)-one], 218 to 219 °C (dec.); to `COc1ccc(Nc2ncc3c(n2)N(C2CCCC2)C(=O)NC3)cc1` [Example 9, 1-Cyclopentyl-7-(4-methoxyphenylamino)-3,4-dihydro-pyrimido[4,5-d]pyrimidin-2(1H)-one], 247 to 249 °C (dec.). For the compound `O=C1NCc2cnc(Nc3ccc(N4CCCCC4)cc3)nc2N1C1CCCC1` [Example 10, 1-Cyclopentyl-7-[4-(piperidin-1-yl)phenylamino]-3,4-dihydro-pyrimido [4,5-d]pyrimidin-2(1H)-one], the melting point was 254 to 277 °C (dec.).

For the compound `CN1CCN(c2ccc(Nc3ncc4c(n3)N(C3CCCC3)C(=O)NC4)cc2)CC1` [Example 11, 1-Cyclopentyl-7-[4-(4-methylpiperazin-1-yl)phenylamino]-3,4-dihydro-pyrimido[4,5-d]pyrimidin-2(1H)-one], the melting point is 236 to 239 °C (dec.). To `CCN(CC)CCOc1ccc(Nc2ncc3c(n2)N(C2CCCC2)C(=O)NC3)cc1C` [Example 13, 1-Cyclopentyl-7-{3-methyl-4-[2-(diethylamino)ethoxy]phenylamino}-3,4-dihydro-pyrimido[4,5-d]pyrimidin-2(1H)-one] belongs 175 to 177 °C; to `O=C1NCc2cnc(Nc3ccc(N4CCC(O)CC4)cc3)nc2N1C1CCCC1` [Example 15, 1-Cyclopentyl-7-[4-(4-hydroxypiperidin-1-yl)phenylamino]-3,4-dihydro-pyrimido [4,5-d]pyrimidin-2(1H)-one], > 200 °C (dec.); to `O=C1NCc2cnc(Nc3ccc(N4CCCC(O)C4)cc3)nc2N1C1CCCC1` (stereo not drawn) [Example 16, 1-Cyclopentyl-7-[4-(3-hydroxypiperidin-1-yl)phenylamino]-3,4-dihydro-pyrimido[4,5-d]pyrimidin-2(1H)-one], > 200 °C (dec.). With `CC1CN(c2ccc(Nc3ncc4c(n3)N(C3CCCC3)C(=O)NC4)cc2)CC(C)N1` (stereo not drawn) [Example 18, 1-Cyclopentyl-7-[4-(3,5-dimethylpiperazin-1-yl)phenylamino]-3,4-dihydro-pyrimido[4,5-d]pyrimidin-2(1H)-one], the melting point was > 200 °C (dec.). For the compound `O=C1NCc2cnc(Nc3ccc(N4CCCCC4CO)cc3)nc2N1C1CCCC1` (stereo not drawn) [Example 19, 1-Cyclopentyl-7-[4-(2-hydroxymethylpiperidin-1-yl)phenylamino]-3,4-dihydro-pyrimido[4,5-d]pyrimidin-2(1H)-one], the melting point fell in the range of 220 to 221 °C. The figure for `O=C1NCc2cnc(Nc3ccc(N4CCC(CCCO)CC4)cc3)nc2N1C1CCCC1` [Example 20, 1-Cyclopentyl-7-{4-[4-(3-hydroxypropyl)piperidin-1-yl]phenylamino}-3,4-dihydro-pyrimido[4,5-d]pyrimidin-2(1H)-one] is over 230 °C; for `CC(C)N1C(=O)NCc2cnc(Nc3ccc(N4CCC(O)CC4)cc3)nc21` [Example 23, 7-[4-(4-Hydroxypiperidin-1-yl)phenylamino]-1-isopropyl-3,4-dihydro-pyrimido[4,5-d]pyrimidin-2(1H)-one] it is > 120 °C (dec.). In the case of `CC(C)N1C(=O)NCc2cnc(Nc3ccc(N4CCC(N(C)C)CC4)cc3)nc21.O=C(O)C(F)(F)F` [Example 24, 7-{4-[4-(Dimethylamino)piperidin-1-yl]phenylamino}-1-isopropyl-3,4-dihydro-pyrimido[4,5-d]pyrimidin-2(1H)-one; compound with trifluoroacetic acid], the melting point is 215 to 217 °C (dec.).

Consider `CC(C)N1C(=O)NCc2cnc(Nc3ccc(-n4cccn4)cc3)nc21.O=C(O)C(F)(F)F` [Example 25, 1-Isopropyl-7-[4-(pyrazol-1-yl)phenylamino]-3,4-dihydro-pyrimido[4,5-d]pyrimidin-2(1H)-one; compound with trifluoroacetic acid], for which the melting point was 249 to 252 °C (dec.). Consider `CN1C(=O)NCc2cnc(Nc3ccc(N4CCC(N(C)C)CC4)cc3)nc21.O=C(O)C(F)(F)F` [Example 30, 7-{4-[4-(Dimethylamino)piperidin-1-yl]phenylamino}-1-methyl-3,4-dihydro-pyrimido[4,5-d]pyrimidin-2(1H)-one; compound with trifluoroacetic acid], for which the melting point is 190 to 191 °C (dec.). Take `CN1CCN(c2ccc(Nc3ncc4cnc(=O)n(C5CCCC5)c4n3)cc2)CC1` [Example 32, 1-Cyclopentyl-7-[4-(4-methylpiperazin-1-yl)phenylamino]pyrimido-[4,5-d]pyrimidin-2(1H)-one]: the melting point was 220 to 225 °C (dec.). Regarding `O=c1ncc2cnc(Nc3ccc(N4CCC(O)CC4)cc3)nc2n1C1CCCC1` [Example 33, 1-Cyclopentyl-7-[4-(4-hydroxypiperidin-1-yl)phenylamino]pyrimido[4,5-d]pyrimidin-2(1H)-one], the melting point is > 185 °C (dec.).

`CCN(CC)CCOc1ccc(Nc2ncc3cnc(=O)n(C4CCCC4)c3n2)cc1C` [Example 34, 1-Cyclopentyl-7-{3-methyl-4-[2-(diethylamino)ethoxy]-phenylamino}pyrimido[4,5-d]pyrimidin-2(1H)-one]: the melting point was > 95 °C (dec.). Turning to `O=c1ncc2cnc(Nc3ccc(N4CCCC(O)C4)cc3)nc2n1C1CCCC1` (stereo not drawn) [Example 35, 1-Cyclopentyl-7-[4-(3-hydroxypiperidin-1-yl)phenylamino]pyrimido[4,5-d]-pyrimidin-2(1H)-one], the melting point was > 135 °C (dec.). To `O=c1ncc2cnc(Nc3ccc(-n4cccn4)cc3)nc2n1C1CCCC1` [Example 36, 1-Cyclopentyl-7-[4-(pyrazol-1-yl)phenylamino]pyrimido[4,5-d]pyrimidin-2(1H)-one] belongs > 135 °C (dec.).

`O=c1ncc2cnc(Nc3ccc(N4CCC(CCN5CCOCC5)CC4)cc3)nc2n1C1CCCC1` [Example 39]: the melting point is > 140 °C (dec.).

The values are drawn from US7501425B1, “Bicyclic pyrimidines and bicyclic 3,4-dihydropyprimidines as inhibitors of cellular proliferation” (Warner Lambert Company, priority 1999, dated 2009).
